# Laboratory results reported in patent US20030216471A1, “Retinoid formulations for aerosolization and inhalation” (priority 2003, published 2003).
# “Also recorded” adds a separate entry of the source. Where two headings read alike, the source gives them in different places. Marks after values point to notes of the source that are not given here.
# Tests used:
# RAR γ = assay: RAR induction in lungs of A/J mice exposed to isotretinoin aerosol, RAR γ; assay type: in vivo, mouse; details: inhaled mid dose, urethane-treated A/J mice
# Description: Antibodies: Polyclonal antibodies to RARα, β and γ (Santa Cruz Biotechnology Inc., San Francisco, Calif.) were used with a BM Chemiluminescence Western Blotting Kit (Mouse/Rabbit) (Boehringer Mannheim Corporation, Indianapolis).
# Experimental Design: Five lungs each from the urethane-treated vehicle, low dose, and mid dose animals were snap frozen in liquid nitrogen and stored at −70° C. for determination of RARs α, β and γ by Western Blot Analysis. […] The lungs were homogenized and the RARs were determined by standard Western Blotting (21, 22).
# Samples: Lung tissue was collected, frozen on dry ice and kept at −70° C. until used. A 500 mg portion was diced in small pieces and homogenized in 300 μl of cold PBS using a hand held homogenizer for 2-3 min. Samples were centrifuged at 500 rpm for 5 min or until the supernatant was clear. The pellet was suspended in 400 μl of cold Buffer A [2 μl 0.5 M EDTA, 10 μl mM EGTA, 50 μl 100 mM PMSF, 10 μl 1M DTT, 10 ml (10 mM HEPES pH 7.9+10 mM KCl)], and left at ice temperature for 15 min. A 25 μl volume of 10% solution of NP−40 was added and the samples were mixed in a vortex vigorously for 10 sec. Samples were centrifuged at 14,000 rpm for 1 min at 4° C. and the pellet was treated once more in this fashion. […]
# liver RARs = assay: Western blot of rat liver RARs after inhaled 13-cis RA; assay type: in vivo; details: not shown
# Description: The experimental groups were as follows (Table 4):1. Vehicle (10/9 mix of PEG 300 and Ethanol with 0.5% of ascorbic acid and 0.5% phosphatidyl choline) control, day 1: rats (19) inhaled vehicle for 2 hr for one day; 2. […] Vehicle control, day 28: rats (16) inhaled vehicle as for group 1 for a period of 28 days; 5.
# The experimental groups were as follows (Table 1): 1. Vehicle control: rats (3) inhaled vehicle for 240 minutes; 2.
# Tissues were collected, frozen in dry ice and kept at −70° C. until used. 500 mg aliquots were diced in small pieces and homogenized in 300 μl of cold PBS, using the hand held homogenizer for 2˜3 minutes. Sample and washes were centrifuged at 5000×g for 20 minutes. The pellet was suspended in 400 μl of ice-cold Buffer A [2 μl 0.5M EDTA, 10 μl 100 mM EGTA, 50 μl 100MM PMSF, 10 μl 1M DTT, 10 ml (10 mM HEPES pH 7.9+10 mM KCl)], and left at ice temperature for 15 minutes. 25 μl of 10% solution of NP-40 was added and samples were mixed in a vortex vigorously for 10 seconds. Samples were centrifuged at 14,000×g for 1 minute at 4° C. and the pellet treated once more in this fashion (resuspended etc.). The supernatant was removed and 100 μl of ice-cold Buffer C [4 μl 0.5M EDTA, 20 μl 100 mM EGTA, 20 μl 100 mM PMSF, 2 μl 1M DTT, 2 ml (20 mM HEPES pH 7.9+0.4M NaCl)] was added. Pellets were resuspended by tapping gently on the bottom of the Eppendorf tubes. […]
# A/J mice = assay: Lung carcinogenesis model: carcinogen-treated A/J mice exposed to isotretinoin aerosols; assay type: in vivo, mouse; details: for Efficacy (Carcinogen): 10-16 weeks; for non-significant reduction of tumor multiplicity: low dose; for reduction in multiplicity of tumor nodules: mid isotretinoin dose
# Description: The A/J mouse is a well-established animal model for preclinical chemoprevention studies. This strain has a hereditary predisposition for lung cancer, the so-called pulmonary adenoma susceptibility (Pas) genes. A strong candidate for one of these genes, Pas-1, is the K-ras protooncogene. Carcinogenesis in this model with NNK as the inciting agent has been studied so that the times required to develop hyperplastic areas, adenomas, and carcinomas are well known. In addition, the timing of molecular changes associated with carcinogenesis has been studied and are similar to those in humans. In both species, K-ras mutations are common early events.
# Powdered isotretinoin was dissolved in 100% ethanol plus 0.1% α-tocopherol and 0.1% ascorbyl palmitate to give concentrations of isotretinoin ranging from 0.1 to 10 mg/ml. The formulations were prepared monthly. The solutions were protected from light and stored at −5° C. until use. Ultraviolet-visible spectrophotometric verification of the formulated test article concentration was performed on all batches in advance of inhalation treatments with the test article solution. Only formulations within ±10% of the targeted concentration were used on study.
# Within 24 h of the last inhalation exposure, animals were euthanized by intraperitoneal injection of pentobarbital and their lungs were removed and fixed in Bouin's solution or flash frozen for RAR determination. The lungs were evaluated in a blinded fashion so that neither carcinogen nor isotretinoin dose levels were known to the evaluator, who visually counted hyperplastic areas and adenomas on the lung pleural surface as previously described. The significance of the differences between the mean tumor incidence of the treatment and the control groups was determined using the Mann-Whitney Rank Sum test (Statmost TM, DataMost Corp., Sandy, Utah).
# A/J mouse = details: cited from earlier work; for Efficacy (Carcinogen): 20 weeks, urethane
# [1] = BaP, weekly pulmonary dose 0.25 mg/kg
# [2] = BaP, weekly pulmonary dose 4.0 mg/kg
# [3] = NNK and BaP, A/J mice, inhalation
# [4] = NNK, weekly pulmonary dose 0.25 mg/kg
# [5] = NNK, weekly pulmonary dose 4.0 mg/kg
# [6] = Urethane, weekly pulmonary dose 0.25 mg/kg
# [7] = Urethane, weekly pulmonary dose 4.0 mg/kg
compound,measurement,setting,value
"CC1=C(/C=C/C(C)=C/C=C/C(C)=C\C(=O)O)C(C)(C)CCC1 [13-cis RA, 13-cis-Retinoic Acid]",upregulation of lung tissue RAR γ over solvent (vehicle),RAR γ,3.7 fold
same,effect of inhaled 13-cis RA on liver RARs,liver RARs; 5 to 240 minutes daily for 14 days,not responsive
same,effect of inhaled 13-cis RA on liver RARs,liver RARs; same rats as FIG. 2A (experiment A),failed to show any increase
same,Efficacy (Carcinogen),"A/J mice; 0.24 mg/kg weekly total deposited (inh), NNK, BaP, Maybe = trend for efficacy",Maybe
same,Efficacy (Carcinogen),"A/J mice; 0.24 mg/kg weekly total deposited (inh), urethane",No
same,Efficacy (Carcinogen),"A/J mice; 1.6 mg/kg weekly total deposited (inh), NNK, BaP",Yes
same,Efficacy (Carcinogen),"A/J mice; 1.6 mg/kg weekly total deposited (inh), urethane",No
same,Efficacy (Carcinogen),"A/J mice; 24.9 mg/kg weekly total deposited (inh), urethane, NNK, BaP","Yes (urethane, NNK, BaP)"
same,Hyperplastic Areas Per Lung Set (Mean ± SE),"A/J mice; BaP, weekly pulmonary dose 0.04 mg/kg, vehicle control 0.2",0.8 ± 0.3
same,Tumors Per Lung Set (Mean ± SE),"A/J mice; BaP, weekly pulmonary dose 0.04 mg/kg, vehicle control 9.0",6.4 ± 0.7^f
same,Total Lesions Per Lung Set (Mean ± SE),"A/J mice; BaP, weekly pulmonary dose 0.04 mg/kg, vehicle control 9.2",7.2 ± 0.8
same,Hyperplastic Areas Per Lung Set (Mean ± SE),A/J mice; [1],3.2 ± 0.4^d
same,Total Lesions Per Lung Set (Mean ± SE),A/J mice; [1],6.1 ± 0.5^b
same,Tumors Per Lung Set (Mean ± SE),A/J mice; [1],3.0 ± 0.5^d
same,Hyperplastic Areas Per Lung Set (Mean ± SE),A/J mice; [2],3.3 ± 0.9^d
same,Total Lesions Per Lung Set (Mean ± SE),A/J mice; [2],5.2 ± 1.0^b
same,Tumors Per Lung Set (Mean ± SE),A/J mice; [2],1.8 ± 0.5^d
same,weekly pulmonary dose with evidence of efficacy (as low as),A/J mice; [3],0.25 mg/kg
same,weekly pulmonary dose with suggested efficacy,A/J mice; [3],0.04 mg/kg
same,Hyperplastic Areas Per Lung Set (Mean ± SE),"A/J mice; NNK, weekly pulmonary dose 0.04 mg/kg, vehicle control 1.3",2.0 ± 0.4
same,Tumors Per Lung Set (Mean ± SE),"A/J mice; NNK, weekly pulmonary dose 0.04 mg/kg, vehicle control 2.5",2.1 ± 0.3^e
same,Total Lesions Per Lung Set (Mean ± SE),"A/J mice; NNK, weekly pulmonary dose 0.04 mg/kg, vehicle control 3.8",4.1 ± 0.6
same,Hyperplastic Areas Per Lung Set (Mean ± SE),A/J mice; [4],3.3 ± 0.3^d
same,Total Lesions Per Lung Set (Mean ± SE),A/J mice; [4],3.6 ± 0.3
same,Tumors Per Lung Set (Mean ± SE),A/J mice; [4],0.3 ± 0.2^d
same,Hyperplastic Areas Per Lung Set (Mean ± SE),A/J mice; [5],3.8 ± 0.6^c
same,Total Lesions Per Lung Set (Mean ± SE),A/J mice; [5],4.5 ± 0.7
same,Tumors Per Lung Set (Mean ± SE),A/J mice; [5],0.8 ± 0.3^d
same,Hyperplastic Areas Per Lung Set (Mean ± SE),"A/J mice; Urethane, weekly pulmonary dose 0.04 mg/kg, vehicle control 4.6",3.6 ± 1.1
same,Tumors Per Lung Set (Mean ± SE),"A/J mice; Urethane, weekly pulmonary dose 0.04 mg/kg, vehicle control 24.2",25.7 ± 1.7
same,Total Lesions Per Lung Set (Mean ± SE),"A/J mice; Urethane, weekly pulmonary dose 0.04 mg/kg, vehicle control 29.2",29.3 ± 1.5
same,Hyperplastic Areas Per Lung Set (Mean ± SE),A/J mice; [6],5.9 ± 1.2
same,Total Lesions Per Lung Set (Mean ± SE),A/J mice; [6],32.2 ± 2.4
same,Tumors Per Lung Set (Mean ± SE),A/J mice; [6],26.4 ± 2.1
same,Hyperplastic Areas Per Lung Set (Mean ± SE),A/J mice; [7],5.3 ± 1.3
same,Total Lesions Per Lung Set (Mean ± SE),A/J mice; [7],15.9 ± 1.9^d
same,Tumors Per Lung Set (Mean ± SE),A/J mice; [7],10.6 ± 1.2^d
same,effect of treatment on numbers of tumors,A/J mice; low (lowest) isotretinoin dose,not affected by treatment at the 95% confidence level; also recorded: not significantly effective
same,non-significant reduction of tumor multiplicity,A/J mice; BaP-treated mice (p<0.13),30%
same,non-significant reduction of tumor multiplicity,A/J mice; NNK-treated mice (p<0.30),16%
same,reduction in multiplicity of tumor nodules,A/J mice; BaP-treated mice,67%
same,reduction in multiplicity of tumor nodules,A/J mice; NNK-treated mice,88%
same,Efficacy (Carcinogen),A/J mouse; 200 mg/kg weekly ingested (po),No (urethane)
same,Efficacy (Carcinogen),A/J mouse; 400 mg/kg weekly ingested (po),No (urethane)
same,prevention of urethane-induced lung cancer,"A/J mouse; orally administered, over 300 mg/kg weekly, A/J mouse model",failed to prevent
